Columns and labels:
KSHV+ PEL cell lines = experiment: CellTiter-Glo viability assay, KSHV+ cell line panel; type: cell-based, human
Method: (§1) Cell viability assays were performed by plating log-phase cells in RPMI complete media with 20% FBS at 1*10^5 cells/mL, with concentrations of 6-ETI or phospho-6-ETI ranging from 0.1 nM to 100 μM. ATP content at 24, 48 and 72 hours post-treatment was measured by the CellTiter-Glo kit (Promega, Madison, Wis.), or by Trypan blue assay as indicated. The LC50 for 6-ETI in each cell line was determined using online EC50 software at changbioscience.com or using GraphPad Prism to determine the LC50 for 6-ETI, phospho-6-ETI and nucleoside analogs in MM cell lines and primary MM patient samples.
KSHV+ primary effusion lymphoma (PEL) cell lines (BC1, BC2, BC3, BC5, BCBL1, BCP1), EBV+ lymphoblastoid cell line LCL9001, EBI+ diffuse large B-cell lymphomas (DLBCL) with immunoblastic features (IBL1, IBL4), and EBV+ effusion DLBCL BCKN1 were cultured in RPMI-1640 medium (Invitrogen) supplemented with 50 μg/mL Gentamicin (Sigma-Aldrich) and 10% or 20% heat-inactivated fetal bovine serum, respectively. Uninfected DLBCL cell lines (Ly2, Ly7) were cultured in IMDM (Invitrogen) supplemented with 50 μg/mL Gentamicin and 10% FBS. Multiple myeloma (MM) cell lines U266 and MM1S were cultured in RPMI supplemented with 15%FBS and 50 μg/mL Gentamicin, while JJN3 was cultured in 40% IMDM/40% DMEM plus 20% FBS supplemented with 50 μg/mL Gentamicin. Hodgkin's lymphoma (L428, L1236) and Burkitt's lymphoma cell lines (BJAB, Namalwa)were maintained in RPMI-1640 supplemented with Gentamicin and 10% FBS. All of the PEL cell lines and IBL1 were established in our laboratory from lymphomatous effusions except BCBL1, which was obtained from the AIDS and Cancer Specimen Bank. Burkitt lymphoma cell lines Namalwa and BJAB as well as the multiple myeloma cell line U266 were obtained from the American Type Culture Collection (ATCC). JJN3 cell line and Hodgkin cell lines (L428, L1236) were obtained from DSMZ. DLBCL cell lines LY2 and LY7 were provided by Riccardo Dana-Rivera (Columbia University), MM1S cell line was provided by Dr. Giorgio Inghiraini lab at Weill Cornell Medicine. […]

KSHV- cell lines = experiment: CellTiter-Glo viability assay, KSHV- cell line panel; type: cell-based; settings: Homo sapiens, 48 h, read-out: LC50
Method: as §1
KSHV+ primary effusion lymphoma (PEL) cell lines (BC1, BC2, BC3, BC5, BCBL1, BCP1), EBV+ lymphoblastoid cell line LCL9001, EBI+ diffuse large B-cell lymphomas (DLBCL) with immunoblastic features (IBL1, IBL4), and EBV+ effusion DLBCL BCKN1 were cultured in RPMI-1640 medium (Invitrogen) supplemented with 50 μg/mL Gentamicin (Sigma-Aldrich) and 10% or 20% heat-inactivated fetal bovine serum, respectively. Uninfected DLBCL cell lines (Ly2, Ly7) were cultured in IMDM (Invitrogen) supplemented with 50 μg/mL Gentamicin and 10% FBS. Multiple myeloma (MM) cell lines U266 and MM1S were cultured in RPMI supplemented with 15%FBS and 50 μg/mL Gentamicin, while JJN3 was cultured in 40% IMDM/40% DMEM plus 20% FBS supplemented with 50 μg/mL Gentamicin. […]

IBL1 cells = experiment: Trypan-blue exclusion viability, non-PEL cell line; type: cell-based; settings: Homo sapiens; selected non-PEL cell line (IBL1), 48 hours; read-out: LC50 by Trypan-blue exclusion
Method: as §1

BC3 cells [1] = experiment: Annexin V/7-AAD cell death flow cytometry; type: cell-based, human; settings: 500 nM or 5 μM, 48 hours; versus IBL1
Method: BC3 and IBL1 cells in the exponential phase were seeded at a cell density of 0.2 million cells/ml. Cells were treated with 0.1% DMSO or with 6-ETI at a final concentration of 500 nM or 5 μM for 24, 48 or 72 hrs. Post-treatment, cells were harvested and stained with 2.54 of Alexa Fluor 647 Annexin V conjugate (Life technologies) and 2.5 fit of 7-AAD (BD biosciences) and incubated for 15 minutes in the dark at room temperature. Subsequently, 2004 of Annexin V binding buffer (BD Biosciences) was added to the cell suspension and cells analyzed by flow cytometry using BD biosciences LSRII machine.

PEL cells (BC3) = experiment: Viability after zVAD-FMK pan-caspase inhibitor pre-treatment; type: cell-based, human; settings: 80 μM zVAD-FMK pre-treatment, 48 hours
Method: as §1

BC3 cells [2] = experiment: Propidium iodide cell cycle flow cytometry; type: cell-based, human; settings: BC3, 1 μM, 24 hours
Method: BC3 cells in the exponential phase were seeded at a cell density of 2*10^5 cells/mL. Cells were treated with 0.1% DMSO or with 6-ETI at a final concentration of 1 μM 6-ETI for 24 hrs for cell cycle. Post-treatment, cells were harvested, fixed and stained in Propidium Iodide (Roche). Subsequently, stained cells were analyzed by flow cytometry using BD FACS Aria II SORP cell sorter, and phases of the cell cycle modeled using FlowJo v7.6.5.

[3] = test system: KSHV lytic reactivation in JSC1 PEL cell line; experiment: Lytic reactivation flow assay in rKSHV.219 infected JSC1 cells; type: cell-based; settings: in a small proportion of cells; 1 or 10 μM, 24 or 48 hours
Method: Lytic reactivation low was performed as previously described (Soulier J. et al., Blood 1995;86(4):1276-80). JSC1 B3.1 cells in the exponential phase were seeded at 2*10^5 cells/mL and treated with 1 or 10 μM 6-ETI for 24 or 48 hours, or 20 ng/mL lytic inducer TPA for 48 hours.

[4] = test system: BC3NFRen-luc #3 PEL xenograft; experiment: PEL xenograft model (BC3NFRen-luc #3 in NOD-SCID mice); type: in vivo
Method: The BC3 in vivo xenograft model was set up as previously described (6). Essentially, ˜4-6 week old male NOD-SCID mice (Jackson Labs Stock# 001303) were injected intraperitoneally (I.P.) with 1*10^7 BC3NFRen-luc #3 cells and followed by in vivo imaging every three days. After imaging on day 5 to confirm establishment of the tumor, the mice were randomized to vehicle, low dose and high dose cohorts, with average tumor burden distributed evenly across the groups. Each dose cohort contained 10 mice. Mice were treated for nine days beginning at randomization with vehicle (PBS-Tween80), low dose 6-ETI (150 mg/kg/day), or high dose 6-ETI (300 mg/kg/day). Mice were treated with 200 mg/kg of the 6-ETI analogs (phospho-6ETI and 6-ETI cAMP) for 9 days. We monitored mice for tumor growth by live imaging and weighing, with sacrifice point determined to be a net gain or loss of 10% body weight over a week. Upon reappearance of refractory tumors, mice were re-treated for a further 9-day interval, and followed for a total of 100 days. Compound effects were assessed on overall survival, progression-free survival and tumor burden by Kaplan-Meier curves generated using GraphPad Prism software, and determined p values by 2-tailed analysis with log-rank tests.

[5] = test system: MM cell lines JJN3, MM1S, U266 and CAG; experiment: CellTiter-Glo viability assay, MM cell lines; type: cell-based
Method: as §1

[6] = test system: colon (RKO, HCT116, DID1) and pancreatic (PA-TU-8988T) cancer cell lines; experiment: Viability of adenocarcinoma cell lines; type: cell-based
Method: as §1

[7] = 200 mg/kg for 9 days; cited from earlier work

CCSc1ncnc2c1ncn2[C@@H]1O[C@H](CO)C(O)[C@@H]1O (stereo partly shown) [Compound 6-ETI, 6-ethylthioinosine]
CC50 (KSHV+ PEL cell lines; Homo sapiens, 48 h, read-out: LC50): 0.03 to 0.435 µM | average fold-difference in sensitivity (KSHV+ PEL cell lines; KSHV- versus KSHV+ cell lines): ~275 X | LC95 (KSHV+ PEL cell lines; PEL cell lines): ~1 µM | CC50 (KSHV- cell lines): 10 to 80 µM | CC50 (IBL1 cells): 134 µM | proportion of dead cells (Annexin V/7-AAD) (BC3 cells [1]): higher proportion of dead cells | caspase dependence of induced cell death (PEL cells (BC3)): largely caspase-independent | cell cycle distribution (BC3 cells [2]): reproducible increase in the percentage of cells in S-phase | lytic reactivation [3]: induction of lytic reactivation | toxicities from treatment ([4]; 150 or 300 mg/kg/day): no obvious toxicities | tumor response by in vivo luciferase imaging ([4]; 150 or 300 mg/kg/day for 9 days, within three days of treatment): striking and immediate regression of the implanted xenograft | progression-free survival ([4]; 150 or 300 mg/kg/day, p<0.0001, 100 days): startling protective effect | overall survival ([4]; low dose and high dose versus untreated): significant prolonged overall survival | LC50 [5]: high nM range | LC50 [6]: nanomolar range | reported toxicities [7]: no reported toxicities

— US20190225643A1, “NOVEL NUCLEOSIDE ANALOGS AND USE THEREOF IN THERAPEUTIC TREATMENT” (CORNELL UNIVERSITY, priority 2016, published 2019)
